Source: ChEMBL document CHEMBL3301361, “Experimental in vitro DMPK and physicochemical data on a set of publicly disclosed compounds”

What was measured:
[1] = in vitro; settings: human, plasma, PPB
[2] = in vitro; settings: SD, HW or BN, rat, plasma

fraction unbound at 5 h [1]	fraction unbound at 5 h [2]	SMILES
0.232	0.24	O=C(O)CNC(=O)c1ncccc1O
0.013	0.02	O=C(NCc1ccccn1)c1cc(-c2ccccc2)nc2ccccc12
0.0077	0.0092	CC(C)(Oc1ccc(Cl)cc1)C(=O)N1CCN(c2ccccn2)CC1
0.0061	0.0064	Cc1ccc(NC(=O)Nc2nnc(-c3ccncc3)s2)cc1
0.0229	0.024	CN(c1ccccc1)S(=O)(=O)c1ccc(NC(=O)C(C)(O)C(F)(F)F)cc1 (configuration not stated)
0.101	0.19	Cc1ccc(S(=O)(=O)NCCSc2nnnn2-c2ccc(C(N)=O)cc2)cc1
0.0066	0.0059	COc1ccc2c(c1)C(=O)C(=O)N2CC1COc2ccccc2O1 (configuration not stated)
0.04	0.0032	Cc1cc(C)c(C)c(Cn2ccc3c(/C=N/NC(=O)c4ccc(O)c(C#N)c4)cccc32)c1C
0.0033	0.0067	Cc1nc2ccc(NS(=O)(=O)c3ccc4c(c3)OCCO4)cc2s1
0.0209	0.051	Cc1ccc(S(=O)(=O)Nc2ccc3nc(C)oc3c2)cc1
0.002	0.003	Cc1onc(-c2c(Cl)cccc2Cl)c1NC(=O)OCc1c(F)cccc1Cl
0.009	0.0457	Cc1onc(-c2c(Cl)cccc2Cl)c1CC(=O)NCc1ccc(OCC(F)(F)F)nc1
0.201	0.16	O=c1cc(Cn2c(C3CCC3)nc3nccnc32)c2ccc(F)c(F)c2[nH]1
0.179	0.262	CN(C)CCC1CCN(c2cc(C(=O)NC[C@H]3CC[C@H](CNC(=O)OC4CCOCC4)CC3)c3ccccc3n2)CC1
0.0262	0.089	Cc1ccc(S(=O)(=O)Nc2c(C(=O)NC3CCOCC3)c(C)nn2-c2ccccc2)cc1
0.101	0.11	O=c1cc(N2CCOCC2)nc2n(Cc3cccc(Cl)c3)ccn12
0.163	0.157	COc1ccc(CCC[N+](C)(CCCc2ccc(OC)cc2)CCNC(=O)c2nc(Cl)c(N)nc2N)cc1
0.0066	0.0028	COc1cccc2c1c(NS(=O)(=O)c1ccc(Cl)s1)nn2Cc1cccc(CNC(C)=O)c1
0.0447	0.0149	Cn1c(-c2cc(=O)c(O)c[nH]2)nn(S(=O)(=O)NC(=O)N2C[C@H](NC(=O)/C(=N\OC(C)(C)C(=O)O)c3csc(N)n3)C2=O)c1=O
0.0418	0.0383	Cc1nn(-c2ccccc2)nc1C(=O)N[C@@H]1COc2cccc(N3CCN(C)CC3)c2C1
0.0409	0.089	O=C(N[C@@H]1COc2cccc(-c3ccc(CO)nc3)c2C1)c1ccc(OCCOCC(F)(F)F)nc1
0.0418	0.069	CC(C)C(NC(=O)c1ccccc1)C(=O)c1ccc([N+](=O)[O-])cc1 (configuration not stated)
0.0499	0.0836	CC(C)C(NC(=O)c1ccccc1)C(=O)c1ccc(F)cc1 (configuration not stated)
0.0928	0.124	CC(C)C(NC(=O)c1ccccc1)C(=O)c1ccc(C#N)cc1 (configuration not stated)

fraction unbound at 5 h [1]	fraction unbound at 5 h [2]	SMILES
0.0262	0.0428	CC(C)C(NC(=O)c1cc(Cl)ccc1C(F)(F)F)C(=O)c1ccc(C#N)cc1 (configuration not stated)
0.006	0.0081	CC(C)(C)C(NC(=O)c1ccccc1)C(=O)c1ccc(Cl)cc1 (configuration not stated)
0.119	0.139	COc1ncc(-c2cccc(C#N)c2CCNC(=O)c2ccc(OCCC(F)(F)F)nc2)cn1
0.0099	0.129	COc1ncc(-c2ccccc2C(F)(F)CNC(=O)c2ccc(COCC(F)(F)F)nc2)cn1
0.0801	0.28	Cc1cnc(-c2c(F)ccc(F)c2CCNC(=O)c2ccc(COCC(F)(F)F)nc2)cn1
0.0328	0.0457	COc1cnc(-c2cccc(F)c2C(F)(F)CNC(=O)c2ccc(COCC(F)(F)F)nc2)cn1
0.266	0.19	O=c1cc(N2CCOCC2)nc(NCc2ccccc2)[nH]1
0.0321	0.0251	O=c1cc(N2CCOCC2)nc(NCc2cccc3ccccc23)[nH]1
0.0209	0.0179	O=c1cc(N2CCOCC2)nc(NCc2cccc(Cl)c2Cl)[nH]1
0.0705	0.0477	O=c1cc(N2CCOCC2)nc(NCc2cccc(Cl)c2)[nH]1
0.04	0.0418	O=c1cc(N2CCOCC2)nc(NCc2c(Cl)cccc2Cl)[nH]1
0.0447	0.179	O=C(NCc1cccc(OC(F)(F)F)c1)C1c2ccccc2C(=O)N1CCc1ncc(F)cn1 (configuration not stated)
0.0321	0.0988	O=C(NCc1ccc(F)c(OC(F)(F)F)c1)C1c2ccccc2C(=O)N1CCc1ncc(F)cn1 (configuration not stated)
0.0477	0.129	O=C(NCc1ccc(F)c(C(F)(F)F)c1)C1c2ccccc2C(=O)N1CCc1ncc(F)cn1 (configuration not stated)
0.0179	0.0418	O=C(NCc1ccc(OC(F)(F)F)cc1)C1c2cccc(O)c2C(=O)N1CCc1ncc(F)cn1 (configuration not stated)
0.0111	0.0366	CC(Cc1ccccn1)N1C(=O)c2ccccc2C1C(=O)NCc1ccc(OC(F)(F)F)cc1 (configuration not stated)
0.0477	0.0928	O=C(NCc1ccc(OC(F)(F)F)cc1)C1c2ccccc2C(=O)N1CCc1ncc(F)cn1 (configuration not stated)
0.0358	0.0606	O=C(NCc1ccc(OC(F)(F)F)cc1)C1c2ccccc2C(=O)N1C[C@@H]1CCCO1 (some centres not stated)
0.0358	0.0447	O=C(NCc1ccc(OC(F)(F)F)cc1)C1c2ccccc2C(=O)N1CCc1ccccn1 (configuration not stated)
0.0928	0.371	O=C(NCc1ccc(OCC(F)(F)F)nc1)C1c2ccccc2C(=O)N1CCc1ccccn1 (configuration not stated)
0.11	0.262	COc1ccc(-c2c(C(=O)N3CCC[C@H]3CO)cc3cccnn23)cc1
0.0872	0.139	CCN(CCO)C(=O)c1oc2cccnc2c1-c1cccc(C(F)(F)F)c1
0.0568	0.0064	CN(Cc1cccc2ccccc12)c1cc(N2CCOCC2)nc(=O)[nH]1
0.139	0.151	O=c1nc(N2CCOCC2)cc(N(CCO)Cc2cccc3ccccc23)[nH]1

fraction unbound at 5 h [1]	fraction unbound at 5 h [2]	SMILES
0.013	0.024	CC1CN(c2cc(=O)[nH]c(NCc3cccc4ccccc34)n2)CCO1 (configuration not stated)
0.0784	0.0988	CN1CCN(S(=O)(=O)c2ccc(-c3cnc(N)c(C(=O)Nc4cnccc4CN4CCCC4)n3)cc2)CC1
0.028	0.0099	Cc1ncc(C(N)=S)nc1-c1ccc([C@H]2CC[C@H](CC(=O)O)CC2)cc1
0.0544	0.0383	Cc1nc(C(F)F)c(C(N)=O)nc1-c1ccc([C@H]2CC[C@H](CC(=O)O)CC2)cc1
0.0262	0.0119	Cc1nc(C(C)C)c(C(N)=O)nc1-c1ccc([C@H]2CC[C@H](CC(=O)O)CC2)cc1
0.0219	0.0119	Cc1nc(C(C)C)c(-c2ccc([C@H]3CC[C@H](CC(=O)O)CC3)cc2)nc1C(N)=O
0.028	0.013	NC(=O)c1cncc(-c2ccc([C@H]3CC[C@H](CCO)CC3)cc2)n1
0.0784	0.0251	Cc1nc(C)c(-c2ccc([C@H]3CC[C@H](CC(=O)NC(C)(C)C(=O)O)CC3)cc2)nc1C(N)=O
0.035	0.0063	NC(=O)c1cncc(-c2ccc([C@H]3CC[C@H](CC(=O)O)CC3)cc2)n1
0.0119	0.016	CCC[C@H](c1ccc(C(=O)O)c(Oc2cccc(Cl)c2)c1)N1CCC[C@H](n2cc(C)c(=O)[nH]c2=O)C1
0.007	0.0179	CCC[C@@H](c1ccc(C(=O)O)c(Oc2cccc(Cl)c2)c1)N1CCC[C@H](n2cc(C)c(=O)[nH]c2=O)C1
0.0544	0.0544	O=C(CCCN1CC[Si](O)(c2ccc(Cl)cc2)CC1)c1ccc(F)cc1
0.0409	0.0447	O=C(CCCN1CC[Si](O)(c2cccc(C(F)(F)F)c2)CC1)c1ccc(F)cc1
0.0179	0.0082	Cc1nnc(-c2ccc(N3CCC(Oc4cc(F)ccc4Cl)CC3)nn2)o1
0.0059	0.0209	N#Cc1cc(S(=O)(=O)Nc2ncns2)ccc1Oc1ccc(C(F)(F)F)cc1-c1ccnnc1
0.0081	0.0142	N#Cc1cc(S(=O)(=O)Nc2ncc(Cl)s2)ccc1Oc1ccc(Cl)cc1-c1ccnn1C1CNC1
0.299	0.309	CC(C)(C)NC(=O)CN1CCN(CC(=O)NC23CC4CC(CC(C4)C2)C3)CC1
0.0111	0.002	CC(C)(C)OC(=O)N[C@H](Cc1ccccc1C(F)(F)F)C(=O)NCc1nc2cccnc2n1Cc1ccccc1
0.0358	0.0428	CC(C)Oc1cc(Nc2nc(N[C@@H](C)c3ccc(F)cc3)nc(NC(CO)CO)c2Cl)n[nH]1
0.0099	0.016	CC(C)c1noc(C2CCN(c3ncnc(Nc4ccc(S(C)(=O)=O)cc4F)c3[N+](=O)[O-])CC2)n1
0.0219	0.0366	CC(NC(=O)c1cc2ccccc2[nH]1)c1ccccc1 (configuration not stated)
0.007	0.0437	c1ccc2c(c1)CCC[C@H]2Nc1nc2ccccc2[nH]1
0.0418	0.0752	Cc1onc(-c2ccccc2)c1C(=O)N(C)c1ccc(Cl)cc1
